Source: patent US20110160303A1, “N-ALKYLCARBONYL-AMINO ACID ESTER AND N-ALKYLCARBONYL-AMINO LACTONE COMPOUNDS AND THEIR USE” (Edward Tak WEI, priority 2005, published 2011)

Experiments:
periorbital area = experiment: Study 4: 1% ointment applied bilaterally to the periorbital area; assay type: in vivo, human; conditions: periorbital application
Source text: A 1% preparation of 2-isopropyl-5-methyl-cyclohexanecarbonyl D-alanine methyl ester in Aquaphor® ointment was applied bilaterally to the periorbital area of four individuals. […] This alerting effect lasted for about one hour. This experiment was then repeated three days later in the evening with the same individuals whose occupations required daylong activities before a computer screen. Again, application of the ointment about the periorbital area was reported to relieve fatigue, enhance visual acuity, and to increase attention span and focus. Sensations of refreshment and improved mood were also noted.

tongue = experiment: Threshold for cooling on the tongue; assay type: in vivo, human; conditions: for Threshold tongue: threshold for cooling on the tongue
Protocol: Watson et al. (U.S. Pat. No. 4,178,459) tested the properties of N-substituted p-menthane carboxamides on volunteers by putting filter paper (1×1 cm), impregnated with a known amount of compound, onto the dorsal surface of the tongue of the test subject. After 30 seconds, the subject was required to report presence or absence of a cooling effect. […] The average threshold of (−)-menthol for 6 subjects was 0.25 μg, but there was a 100-fold variation in individual sensitivity. As noted above, coolness signals detected from the dorsal surface of the tongue may be confounded by gustatory, olfactory, and other variables, as well as by dilution from saliva. The octanol/water partition coefficients (given in log P units) for a number of compounds were determined and are shown in Table 7, together with the threshold for cooling on the tongue tested at 40 mM. […] A longer duration of action was not precisely matched with log P values.

skin above the upper lip = experiment: Cooling sensation on facial skin, ointment applied to skin above the upper lip; assay type: in vivo, human; design: key to refreshing cooling and absence of skin irritation or eye irritation (“perfect cool”): (*) denotes compounds with refreshing cooling and absence of skin irritation or eye irritation after facial skin or periorbital applications; a “perfect cool.”; conditions: for Duration of Skin Cooling: 40 mM (1% wt/vol) ointment; for Duration of Skin Cooling / Duration of Action On-Off (minutes): On (onset) / Duration of Action On-Off (minutes): duration (offset minus onset) / Duration of Action On-Off (minutes): Off (offset): skin above upper lip; for Duration of Action On-Off (minutes): On (onset): 40 mM (~1% wt/vol) Aquaphor ointment, 40 to 70 mg, time to reach 2 units of coolness; for Duration of Action On-Off (minutes): duration (offset minus onset) / Duration of Action On-Off (minutes): Off (offset): 40 mM Aquaphor ointment; for Duration of Action On-Off (minutes): Off (offset): time when coolness drops below 2 units; for refreshing cooling and absence of skin irritation or eye irritation (“perfect cool”): after facial skin or periorbital applications
Source text: A reliable place for topical application is the skin above the upper lip (above the vermilion border of the lips), on the philtrum, lateral to the philtrum until the nasolabial folds, and on the lower nostrils (subnasale). This part of the face is known to be densely innervated with cold receptors, second only to the surfaces of the eyeball and anogenitalia. A second location is on or below the malar eminence (cheekbone). The skin above the cheekbone is thicker than above the lips, and therefore has a higher threshold for activation. At both loci, tingling, cool and cold sensations in the skin may be experienced and rated for time of onset and intensity.
The intensity of the subjective skin sensation is rated as 0, 1, 2 or 3 with: 0 as no change; 1 as slight coolness, cold, or tingling; 2 as clear-cut signal of coolness, cold, or tingling; and 3 as robust cooling or cold. The intervals for recording sensations are 5 to 10 minutes, until two successive zeroes are obtained. The results (shown in FIGS. 1 and 2) are averaged values of 4 to 6 separate trials in the same individual. The data are plotted using SigmaPlot® (Systat Software, Point Richmond Calif.) and a smoothing function with a negative exponential was used for analysis and statistical fit of the results. Confirmatory trials of cooling action of the long-acting NACE compounds were obtained in 2 to 4 individuals but not quantified for some because of the large number of chemicals that were evaluated.
The onset of drug action is taken as the time to reach 2 units of coolness intensity, and offset of drug action is the time when coolness intensity drops below 2, after previously surpassing 2 units. The duration of cooling action is defined as the offset time minus the onset time. […] The quality of the sensation is noted, for example, as pure refreshing coolness, or if the sensation is accompanied by irritation (stinging or burning). The quality of the sensation is not rated for intensity.
For bioassay on the skin, approximately 30 mg was stirred and dissolved in 3 g of warm liquid Aquaphor® ointment to a yield a 40 mM (˜1% wt/vol) ointment. The exact amount was adjusted so that the molar equivalent was about 35 to 40 mM. After cooling, 40 to 70 mg of the solid ointment was placed on the tip of a plastic stick and applied to the skin above the upper lip, on the philtrum, and lateral to the philtrum, up to the nasolabial folds, of test subjects and the onset and duration of cooling sensations noted.
The intensity of the subjective skin sensation was rated as 0, 1, 2 or 3 with: 0 as no change; 1 as slight coolness, cold, or tingling; 2 as clear signal of coolness, cold, or tingling; and 3 as robust cooling or cold. The intervals for recording sensations were 5 to 10 minutes, until two successive zeroes were obtained. The results (shown in FIGS. 1 and 2) are averaged values of 4 to 6 separate trials in the same individual. The data are plotted using SigmaPlot® (Systat Software, Point Richmond, Calif., USA) and a smoothing function with a negative exponential was used for analysis and statistical fit of the results.
The onset of drug action was taken as the time to reach 2 units of coolness intensity, and offset of drug action was the time when coolness intensity drops below 2, after previously surpassing 2 units. The duration of cooling action was defined as the offset time minus the onset time. […] The quality of the sensation was also noted: such as pure refreshing coolness, or if the sensation was accompanied by irritation (stinging or burning). The quality of the sensation was not rated for intensity.
Test compounds were singly applied to the skin above the upper lips at a 40 to 70 mg dose of a 1% wt/vol ointment.

[1] = Octanol/water partition coefficient; assay type: physicochemical
Protocol: The octanol/water partition coefficients (given in log P units) for a number of compounds were determined and are shown in Table 7, together with the threshold for cooling on the tongue tested at 40 mM. […] A longer duration of action was not precisely matched with log P values.

oral cavity = experiment: Oral cavity test, substance placed on dorsal surface of the tongue; assay type: in vivo, human; conditions: for sensory irritation in the mouth: Study 7, same test conditions
Protocol: The subject is instructed to close and hold the substance in the mouth for at least 10 seconds and not to swallow. The description of sensations is then recorded at 5 minute intervals.
The compounds of Formula (1) and (2) are white crystalline solids at room temperatures. These compounds were tested as such, or mixed 1:1 with powdered or granulated sugar. The test substances were applied at 1 to 5 mg on the mid-point of the dorsal surface of the tongue using a metal spatula or a plastic applicator. After depositing the test substance on the tongue, the subject was instructed to keep the mouth closed and allow the fluids of the mouth to inter-mix with the test substance and to distribute it to the back of the mouth (oropharynx). The presence and duration of subjective sensations from the mouth was then noted.
In normal subjects, the effects of the D-Ala methyl and ethyl ester compounds falling within Formula (1) ((R)-2-[((1R,2S,5R)-2-isopropyl-5-methyl-cyclohexanecarbonyl)-amino]-propionic acid methyl or ethyl ester)) were examined. Three doses of 1, 2 and 4 mg per application were examined and compared to a similar dose of the L-Ala methyl or ester analog ((S)-2-[((1R,2S,5R)-2-isopropyl-5-methyl-cyclohexanecarbonyl)-amino]-propionic acid methyl or ethyl ester). At the 2 or 4 mg dose, all compounds produced pleasant and robust cooling sensations on the tongue, extending down to the back of throat, and lasted for about 30 minutes and longer. The onset effect was usually within 30 seconds of application.

| SMILES | irritation of skin and eye surfaces (periorbital area) | Threshold tongue (tongue) | Duration of Skin Cooling (skin above the upper lip) | Duration of Action On-Off (minutes): On (onset) (skin above the upper lip) | Duration of Action On-Off (minutes): duration (offset minus onset) (skin above the upper lip) | Duration of Action On-Off (minutes): Off (offset) (skin above the upper lip) | Log P [1] | times less potent than WS-11 on the tongue threshold test (tongue; in vivo) | sensory irritation in the mouth (oral cavity) | refreshing cooling and absence of skin irritation or eye irritation (“perfect cool”) (skin above the upper lip) | duration of action relative to WS-11 (skin above the upper lip; in vivo) | logP [1] | cooling sensation at the back of the throat (oral cavity; Study 7, 2 mg per dose) |
| --- | --- | --- | --- | --- | --- | --- | --- | --- | --- | --- | --- | --- | --- |
| CNC(=O)C(C)(C(C)C)C(C)C [WS-23, N-2,3-trimethyl-2-isopropylbutanamide, reference compound] | significant skin and eye irritation | – | – | – | – | – | – | – | – | – | – | – | – |
| CC1CCC(C(C)C)C(C(=O)NC(C)(C)CO)C1 (stereo not drawn) [WS-11, reference compound] | significant skin and eye irritation | 0.3 µg | 0.2 h | 8 min | 10 min | 18 min | 2.9 | – | – | – | – | – | – |
| CCOC(=O)CN(C)C(=O)C1CC(C)CCC1C(C)C (stereo not drawn) [Sar Et Ester] | – | 0.8 µg | 1.0 h | 2 min | 63 min | 65 min | 2.9 | 2.7 times | some sensory irritation | Sar Et Ester (*) | five | – | – |
| CC1CCC(C(C)C)C(C(=O)NC(C)(C)C)C1 (stereo not drawn) [WS-14, reference compound] | significant skin and eye irritation | 0.4 µg | 0.1 h | 15 min | 8 min | 23 min | 4.5 | – | – | – | – | – | – |
| CCOC(=O)CNC(=O)[C@@H]1C[C@H](C)CC[C@H]1C(C)C [Gly Et Ester (WS-5), N-p-menthanecarbonyl glycine ethyl ester, reference compound] | – | 0.2 µg | 0.5 h | 4 min | 33 min | 37 min | – | – | some sensory irritation | Gly Et Ester (WS-5) (*) | – | 2.9 | – |
| CCNC(=O)C1CC(C)CCC1C(C)C (stereo not drawn) [WS-3, reference compound] | significant skin and eye irritation | 0.2 µg | – | 5 min | – | 23 min | 3.7 | – | – | – | – | – | – |
| CC(C)[C@@H]1CC[C@@H](C)C[C@H]1C(=O)NC1CCOC1=O (mixture of isomers) [racemic Hsl, (1R,2S,5R)-2-isopropyl-5-methyl-cyclohexanecarboxylic acid (2-oxo-tetrahydro-furan-3-yl)-amide] | – | – | 1.4 h | 2 min | 84 min | 86 min | – | – | – | racemic Hsl (*) | – | 2.5 | robust and prolonged cooling |
